In brackets after ≈: the same amount, converted by molar mass.

Holding throughout (format): cell-based
One assay has as its system S. aureus UC-76 SA-1. The experiment in a line: in vitro antibacterial activity (MIC), S. aureus. As to conditions: Staphylococcus aureus, UC76, strain UC-76 SA-1, lowest concentration preventing macroscopically visible growth. An excerpt:
(§1) The in vitro antibacterial activity of the compounds of the present invention may be assessed by following procedures recommended in (1) National Committee for Clinical Laboratory Standards (January 2003), Methods for dilution antimicrobial tests for bacteria that grow aerobically, Approved Standard (6th ed), M7-A6, NCCLS, Wayne, Pa.; (2) National Committee for Clinical Laboratory Standards (March 2001), Methods for antimicrobial susceptibility testing of anaerobic bacteria, Approved Standard (5th ed), M11-A4, NCCLS, Wayne, Pa.; (3) National Committee for Clinical Laboratory Standards (Jan. 2003), MIC testing supplemental tables, M100-S13 (for use with M7-A6), NCCLS, Wayne, Pa.; and (4) Murray P R, Baron E J, Jorgensen J H, et al. Manual of Clinical Microbiology (8th ed) Washington, D.C.: American Society for Microbiology Press, 2003. The antibacterial activity can be presented in the form of MIC value. The MIC value is the lowest concentration of drug, which prevented macroscopically visible growth under the conditions of the test.

In the next assay the test system is S. pneumoniae SV1 SP-3. The assay is described as follows: in vitro antibacterial activity (MIC), S. pneumoniae. The conditions noted are these: Streptococcus pneumoniae, SV1SP3, strain SV1 SP-3, lowest concentration preventing macroscopically visible growth.
Excerpt: as §1

The test system of another assay is E. faecalis MGH-2 EF 1-1. The assay is described as follows: in vitro antibacterial activity (MIC), E. faecalis. The conditions noted are these: Enterococcus faecalis, MGH2EF11, strain MGH-2 EF 1-1, lowest concentration preventing macroscopically visible growth.
Excerpt: as §1

As usually defined, the MIC is the lowest concentration found to suppress growth. A higher MIC goes with weaker potency. Take `CC(=O)NC[C@H]1CN(c2ccc3c(c2)COC(=O)N3C)C(=O)O1` [Example 1, (S)—N-((3-(1-methyl-2-oxo-2,4-dihydro-1H-benzo[d][1,3]oxazin-6-yl)-2-oxooxazolidin-5-yl)methyl)acetamide]: the figures for the MIC against S. aureus UC-76 SA-1, in the assay on S. pneumoniae SV1 SP-3 and against E. faecalis MGH-2 EF 1-1 were 4 µg/mL (≈ 12.5 µM), 2 µg/mL (≈ 6.26 µM) and 4 µg/mL (≈ 12.5 µM), respectively.
As for `CCC(=O)NC[C@H]1CN(c2ccc3c(c2)COC(=O)N3C)C(=O)O1` [Example 2, (S)—N-((3-(1-methyl-2-oxo-2,4-dihydro-1H-benzo[d][1,3]oxazin-6-yl)-2-oxooxazolidin-5-yl)methyl)propionamide], the MIC was 8 µg/mL (≈ 24 µM) in the assay with S. aureus UC-76 SA-1, 4 µg/mL (≈ 12 µM) in the assay on S. pneumoniae SV1 SP-3 and 8 µg/mL (≈ 24 µM) in the assay on E. faecalis MGH-2 EF 1-1.
For `COC(=O)NC[C@H]1CN(c2ccc3c(c2)COC(=O)N3C)C(=O)O1` [Example 3, (S)-methyl (3-(1-methyl-2-oxo-2,4-dihydro-1H-benzo[d][1,3]oxazin-6-yl)-2-oxooxazolidin-5-yl)methylcarbamate], the MIC in the assay with S. aureus UC-76 SA-1, with S. pneumoniae SV1 SP-3 and against E. faecalis MGH-2 EF 1-1 was 4 µg/mL (≈ 11.9 µM) throughout.
With `CN1C(=O)OCc2cc(N3C[C@H](C(N)=O)OC3=O)ccc21` [Example 4, (R)-3-(1-methyl-2-oxo-2,4-dihydro-1H-benzo[d][1,3]oxazin-6-yl)-2-oxooxazolidine-5-carboxamide], the MIC was found to be 4 µg/mL (≈ 13.7 µM) with S. aureus UC-76 SA-1, 4 µg/mL (≈ 13.7 µM) in the assay on S. pneumoniae SV1 SP-3 and 16 µg/mL (≈ 54.9 µM) in the assay with E. faecalis MGH-2 EF 1-1.
Regarding `CNC(=O)[C@H]1CN(c2ccc3c(c2)COC(=O)N3C)C(=O)O1` [Example 5, (R)—N-methyl-3-(1-methyl-2-oxo-2,4-dihydro-1H-benzo[d][1,3]oxazin-6-yl)-2-oxooxazolidine-5-carboxamide], the MIC in the assay on S. aureus UC-76 SA-1 came to 4 µg/mL (≈ 13.1 µM); in the assay with S. pneumoniae SV1 SP-3 it was 4 µg/mL (≈ 13.1 µM); against E. faecalis MGH-2 EF 1-1 it was 16 µg/mL (≈ 52.4 µM).
With `CN1C(=O)OCc2cc(N3C[C@H](CNC(=O)OCF)OC3=O)ccc21` [Example 6, (S)-Fluoromethyl (3-(1-methyl-2-oxo-2,4-dihydro-1H-benzo[d][1,3]oxazin-6-yl)-2-oxooxazolidin-5-yl)methylcarbamate], the MIC in the assay on S. aureus UC-76 SA-1 stood at 8 µg/mL (≈ 22.6 µM); in the assay with S. pneumoniae SV1 SP-3, 2 µg/mL (≈ 5.66 µM); against E. faecalis MGH-2 EF 1-1, 8 µg/mL (≈ 22.6 µM).
For `CN1C(=O)OCc2cc(N3C[C@H](Cn4ccnn4)OC3=O)ccc21` [Example 7, (R)-6-(5-((1H-1,2,3-triazol-1-yl)methyl)-2-oxooxazolidin-3-yl)-1-methyl-1H-benzo[d][1,3]oxazin-2(4H)-one], the MIC against S. aureus UC-76 SA-1 amounted to 16 µg/mL (≈ 48.6 µM); in the assay on S. pneumoniae SV1 SP-3, 16 µg/mL (≈ 48.6 µM); in the assay with E. faecalis MGH-2 EF 1-1, 32 µg/mL (≈ 97.2 µM).
As to `CN1C(=O)OCc2cc(N3C[C@H](C(N)=O)OC3=O)cc(F)c21` [Example 8, (R)-3-(8-fluoro-1-methyl-2-oxo-2,4-dihydro-1H-benzo[d][1,3]oxazin-6-yl)-2-oxooxazolidine-5-carboxamide], the results for the MIC against S. aureus UC-76 SA-1, in the assay on S. pneumoniae SV1 SP-3 and in the assay on E. faecalis MGH-2 EF 1-1 were 8 µg/mL (≈ 25.9 µM), 16 µg/mL (≈ 51.7 µM) and 8 µg/mL (≈ 25.9 µM), respectively.
With `CNC(=O)[C@H]1CN(c2cc(F)c3c(c2)COC(=O)N3C)C(=O)O1` [Example 9, (R)-3-(8-fluoro-1-methyl-2-oxo-2,4-dihydro-1H-benzo[d][1,3]oxazin-6-yl)-N-methyl-2-oxooxazolidine-5-carboxamide], the MIC with S. aureus UC-76 SA-1, in the assay on S. pneumoniae SV1 SP-3 and in the assay on E. faecalis MGH-2 EF 1-1 was 8 µg/mL (≈ 24.7 µM) in each case.
For `CC(=O)NC[C@H]1CN(c2cc(F)c3c(c2)COC(=O)N3C)C(=O)O1` [Example 10, (S)—N-((3-(8-fluoro-1-methyl-2-oxo-2,4-dihydro-1H-benzo[d][1,3]oxazin-6-yl)-2-oxooxazolidin-5-yl)methyl)acetamide], the MIC was determined as 2 µg/mL (≈ 5.93 µM) in the assay with S. aureus UC-76 SA-1, 2 µg/mL (≈ 5.93 µM) against S. pneumoniae SV1 SP-3 and 4 µg/mL (≈ 11.9 µM) in the assay with E. faecalis MGH-2 EF 1-1.
For the molecule `CCC(=O)NC[C@H]1CN(c2cc(F)c3c(c2)COC(=O)N3C)C(=O)O1` [Example 11, (S)—N-((3-(8-fluoro-1-methyl-2-oxo-2,4-dihydro-1H-benzo[d][1,3]oxazin-6-yl)-2-oxooxazolidin-5-yl)methyl)propionamide], the MIC with S. aureus UC-76 SA-1, with S. pneumoniae SV1 SP-3 and in the assay on E. faecalis MGH-2 EF 1-1 was 4 µg/mL (≈ 11.4 µM) throughout.
For the molecule `COC(=O)NC[C@H]1CN(c2cc(F)c3c(c2)COC(=O)N3C)C(=O)O1` [Example 12, (S)-methyl (3-(8-fluoro-1-methyl-2-oxo-2,4-dihydro-1H-benzo[d][1,3]oxazin-6-yl)-2-oxooxazolidin-5-yl)methylcarbamate], the values for the MIC in the assay on S. aureus UC-76 SA-1, against S. pneumoniae SV1 SP-3 and against E. faecalis MGH-2 EF 1-1 were 4 µg/mL (≈ 11.3 µM), 4 µg/mL (≈ 11.3 µM) and 8 µg/mL (≈ 22.6 µM), respectively.
As for `CC(=O)NC[C@H]1CN(c2cc(F)c3c(c2)CCOC(=O)N3C)C(=O)O1` [Example 15, N-{[(SS)-3-(9-fluoro-1-methyl-2-oxo-1,2,4,5-tetrahydro-3,1-benzoxazepin-7-yl)-2-oxo-1,3-oxazolidin-5-yl]methyl}acetamide], the MIC worked out at 8 µg/mL (≈ 22.8 µM) against S. aureus UC-76 SA-1, 4 µg/mL (≈ 11.4 µM) in the assay with S. pneumoniae SV1 SP-3 and 8 µg/mL (≈ 22.8 µM) in the assay with E. faecalis MGH-2 EF 1-1.
For `CCC(=O)NC[C@H]1CN(c2cc(F)c3c(c2)CCOC(=O)N3C)C(=O)O1` [Example 16, N-{[(5S)-3-(9-fluoro-1-methyl-2-oxo-1,2,4,5-tetrahydro-3,1-benzoxazepin-7-yl)-2-oxo-1,3-oxazolidin-5-yl]methyl}propanamide], the minimal inhibitory concentration (MIC) against S. aureus UC-76 SA-1 amounted to 16 µg/mL (≈ 43.8 µM); in the assay on S. pneumoniae SV1 SP-3 it was 8 µg/mL (≈ 21.9 µM); with E. faecalis MGH-2 EF 1-1 it was 16 µg/mL (≈ 43.8 µM).
With `COC(=O)NC[C@H]1CN(c2cc(F)c3c(c2)CCOC(=O)N3C)C(=O)O1` [Example 17, methyl [(5S)-3-(9-fluoro-1-methyl-2-oxo-1,2,4,5-tetrahydro-3,1-benzoxazepin-7-yl)-2-oxo-1,3-oxazolidin-5-yl]methylcarbamate], the MIC against S. aureus UC-76 SA-1 worked out at 16 µg/mL (≈ 43.6 µM); in the assay with S. pneumoniae SV1 SP-3, 8 µg/mL (≈ 21.8 µM); with E. faecalis MGH-2 EF 1-1, 16 µg/mL (≈ 43.6 µM).
For `CN1C(=O)OCCc2cc(N3C[C@H](C(N)=O)OC3=O)ccc21` [Example 18, (5R)-3-(1-methyl-2-oxo-1,2,4,5-tetrahydro-3,1-benzoxazepin-7-yl)-2-oxo-1,3-oxazolidine-5-carboxamide], the MIC against S. aureus UC-76 SA-1 was determined as 16 µg/mL (≈ 52.4 µM); against S. pneumoniae SV1 SP-3, 32 µg/mL (≈ 105 µM); in the assay with E. faecalis MGH-2 EF 1-1 it was 32 µg/mL (≈ 105 µM).
As for `CNC(=O)[C@H]1CN(c2ccc3c(c2)CCOC(=O)N3C)C(=O)O1` [Example 19, (5R)—N-methyl-3-(1-methyl-2-oxo-1,2,4,5-tetrahydro-3,1-benzoxazepin-7-yl)-2-oxo-1,3-oxazolidine-5-carboxamide], the figures for the MIC with S. aureus UC-76 SA-1, in the assay with S. pneumoniae SV1 SP-3 and against E. faecalis MGH-2 EF 1-1 were 16 µg/mL (≈ 50.1 µM), 32 µg/mL (≈ 100 µM) and 32 µg/mL (≈ 100 µM), respectively.
As to `CC(=O)NC[C@H]1CN(c2ccc3c(c2)CCOC(=O)N3C)C(=O)O1` [Example 20, N-{[(5S)-3-(1-methyl-2-oxo-1,2,4,5-tetrahydro-3,1-benzoxazepin-7-yl)-2-oxo-1,3-oxazolidin-5-yl]methyl}acetamide], the MIC was 8 µg/mL (≈ 24 µM) in the assay with S. aureus UC-76 SA-1, 4 µg/mL (≈ 12 µM) against S. pneumoniae SV1 SP-3 and 8 µg/mL (≈ 24 µM) with E. faecalis MGH-2 EF 1-1.
In the case of `CCC(=O)NC[C@H]1CN(c2ccc3c(c2)CCOC(=O)N3C)C(=O)O1` [Example 21, N-{[(5S)-3-(1-methyl-2-oxo-1,2,4,5-tetrahydro-3,1-benzoxazepin-7-yl)-2-oxo-1,3-oxazolidin-5-yl]methyl}propanamide], the MIC against S. aureus UC-76 SA-1, against S. pneumoniae SV1 SP-3 and in the assay with E. faecalis MGH-2 EF 1-1 was 8 µg/mL (≈ 23 µM) each time.
Take `COC(=O)NC[C@H]1CN(c2ccc3c(c2)CCOC(=O)N3C)C(=O)O1` [Example 22, methyl [(5S)-3-(1-methyl-2-oxo-1,2,4,5-tetrahydro-3,1-benzoxazepin-7-yl)-2-oxo-1,3-oxazolidin-5-yl]methylcarbamate]: the MIC in the assay with S. aureus UC-76 SA-1, with S. pneumoniae SV1 SP-3 and against E. faecalis MGH-2 EF 1-1 was 8 µg/mL (≈ 22.9 µM) throughout.

These data come from patent publication US20090318431A1, “BENZOXAZINONE AND BENZOXAZEPINONE OXAZOLIDINONES AS ANTIBACTERIAL AGENTS” (Pfizer Inc., priority 2006, published 2009).
